Experiments:
Escherichia coli [1] = experiment: Photocleavage activity against pUC18 DNA assessed as conversion supercoiled to nicked circular form relative to H2pXy-Zn complex
Escherichia coli [2] = experiment: Photocleavage activity against pUC18 DNA assessed as increase in conversion supercoiled to nicked circular form in presence of 20% DMSO after 30 mins
Escherichia coli [3] = experiment: Photocleavage activity against pUC18 DNA assessed as conversion supercoiled to nicked circular form relative to H2TMPyP
Escherichia coli [4] = experiment: Photocleavage activity against pUC18 DNA assessed as conversion supercoiled to nicked circular form relative to H2pXy
Escherichia coli [5] = experiment: Photocleavage activity against pUC18 DNA assessed as conversion supercoiled to nicked circular form relative to H2mXy-Zn complex

| Compound | Activity (Escherichia coli [1]) | Activity (Escherichia coli [2]) | Activity (Escherichia coli [3]) | Activity (Escherichia coli [4]) | Activity (Escherichia coli [5]) |
| --- | --- | --- | --- | --- | --- |
| C[n+]1ccc(-c2c3nc(c(-c4cc[n+](C)cc4)c4ccc([nH]4)c(-c4cc[n+](C)cc4)c4nc(c(-c5ccc(C(=O)NCc6ccc(CNC(=O)c7ccc(-c8c9nc(c(-c%10cc[n+](C)cc%10)c%10ccc([nH]%10)c(-c%10cc[n+](C)cc%10)c%10nc(c(-c%11cc[n+](C)cc%11)c%11ccc8[nH]%11)C=C%10)C=C9)cc7)cc6)cc5)c5ccc2[nH]5)C=C4)C=C3)cc1 | 26% | 95% | – | – | – |
| C[n+]1ccc(-c2c3nc(c(-c4cc[n+](C)cc4)c4ccc([nH]4)c(-c4cc[n+](C)cc4)c4nc(c(-c5ccc(C(=O)NCc6cccc(CNC(=O)c7ccc(-c8c9nc(c(-c%10cc[n+](C)cc%10)c%10ccc([nH]%10)c(-c%10cc[n+](C)cc%10)c%10nc(c(-c%11cc[n+](C)cc%11)c%11ccc8[nH]%11)C=C%10)C=C9)cc7)c6)cc5)c5ccc2[nH]5)C=C4)C=C3)cc1 | 6% | – | 28% | 25% | 12% |
